Experimental data: US6610677B2, “Pyrazole compounds useful as protein kinase inhibitors” (Vertex Pharmaceuticals Incorporated, priority 2000, dated 2003)

The compounds below were run against T1, GSK-3β (AA 1-420) (Homo sapiens, UniProt P49841) (assay: Ki determination for the inhibition of GSK-3 (coupled enzyme system)). Conditions: 20 μM ATP, 300 μM peptide, 20 nM GSK-3β, 30° C.
T1 construct: GSK-3β (AA 1-420)
Format: biochemical
Protocol: Compounds were screened for their ability to inhibit GSK-3β (AA 1-420) activity using a standard coupled enzyme system (Fox et al. (1998) Protein Sci. 7, 2249). Reactions were carried out in a solution containing 100 mM HEPES (pH 7.5), 10 mM MgCl2, 25 mM NaCl, 300 μM NADH, 1 mM DTT and 1.5% DMSO. Final substrate concentrations in the assay were 20 μM ATP (Sigma Chemicals, St Louis, Mo.) and 300 μM peptide (HSSPHQS(PO3H2)EDEEE, American Peptide, Sunnyvale, Calif.). Reactions were carried out at 30° C. and 20 nM GSK-3β. Final concentrations of the components of the coupled enzyme system were 2.5 mM phosphoenolpyruvate, 300 μM NADH, 30 μg/ml pyruvate kinase and 10 μg/ml lactate dehydrogenase.
An assay stock buffer solution was prepared containing all of the reagents listed above with the exception of ATP and the test compound of interest. The assay stock buffer solution (175 μl) was incubated in a 96 well plate with 5 μl of the test compound of interest at final concentrations spanning 0.002 μM to 30 μM at 30° C. for 10 min. Typically, a 12 point titration was conducted by preparing serial dilutions (from 10 mM compound stocks) with DMSO of the test compounds in daughter plates. The reaction was initiated by the addition of 20 μl of ATP (final concentration 20 μM). Rates of reaction were obtained using a Molecular Devices Spectramax plate reader (Sunnyvale, Calif.) over 10 min at 30° C. The Ki values were determined from the rate data as a function of inhibitor concentration.

T1 sequence (P49841 whole entry, the tested form may be a part): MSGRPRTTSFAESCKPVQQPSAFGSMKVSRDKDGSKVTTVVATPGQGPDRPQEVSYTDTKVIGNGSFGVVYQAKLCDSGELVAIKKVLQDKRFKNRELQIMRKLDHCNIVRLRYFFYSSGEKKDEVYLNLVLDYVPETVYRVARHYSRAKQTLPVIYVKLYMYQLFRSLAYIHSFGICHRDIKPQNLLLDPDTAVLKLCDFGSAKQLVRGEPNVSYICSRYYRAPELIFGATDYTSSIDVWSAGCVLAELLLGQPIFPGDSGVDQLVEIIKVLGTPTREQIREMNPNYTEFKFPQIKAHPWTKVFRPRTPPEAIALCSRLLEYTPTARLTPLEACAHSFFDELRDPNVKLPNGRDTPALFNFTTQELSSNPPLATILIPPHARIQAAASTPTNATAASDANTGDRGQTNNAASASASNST

Compound	Ki [µM]
FC(F)(F)c1ccccc1-c1nc(Nc2n[nH]c(-c3ccccc3)c2-c2ccccc2)c2ccccc2n1 [II-51, (4,5-Diphenyl-2H-pyrazol-3-yl)-[2-(2-trifluoromethylphenyl)-quinazolin-4-yl]-amine]	1 to 20
NC(=O)c1c[nH]nc1Nc1nc(-c2ccccc2C(F)(F)F)nc2ccccc12 [II-52, (4-Carbamoyl-2H-pyrazol-3-yl)-[2-(2-trifluoromethylphenyl)-quinazolin-4-yl]-amine]	1 to 20
COCc1cc(Nc2nc(-c3ccccc3C(F)(F)F)nc3ccccc23)n[nH]1 [II-56, (5-Methoxymethyl-2H-pyrazol-3-yl)-[2-(2-trifluoromethyl-phenyl)-quinazolin-4-yl]-amine]	< 0.1
Fc1cccc2c(Nc3nc(-c4ccccc4C(F)(F)F)nc4ccccc34)n[nH]c12 [II-60, (7-Fluoro-1H-indazol-3-yl)-[2-(2-trifluoromethyl-phenyl)-quinazolin-4-yl]-amine]	< 0.1
Fc1ccc2[nH]nc(Nc3nc(-c4c(Cl)cccc4Cl)nc4ccccc34)c2c1 [II-62, [2-(2,6-Dichloro-phenyl)-quinazolin-4-yl]-(5-fluoro-1H-indazol-3-yl)-amine]	< 0.1
FC(F)(F)c1ccccc1-c1nc(Nc2n[nH]c3cccc(C(F)(F)F)c23)c2ccccc2n1 [II-65, (4-Trifluoromethyl-1H-indazol-3-yl)-[2-(2-trifluoromethyl-phenyl)-guinazolin-4-yl]-amine]	1 to 20
Clc1cccc(Cl)c1-c1nc(Nc2n[nH]c3ccccc23)c2ccccc2n1 [II-66, [2-(2,6-Dichloro-phenyl)-guinazolin-4-yl]-(1H-indazol-3-yl)-amine]	< 0.1
FC(F)(F)c1ccccc1-c1nc(Nc2n[nH]c3c(C(F)(F)F)cccc23)c2ccccc2n1 [II-68, (7-Trifluoromethyl-1H-indazol-3-yl)-[2-(2-trifluoromethyl-phenyl)-quinazolin-4-yl]-amine]	1 to 20
Fc1cc(F)c2[nH]nc(Nc3nc(-c4ccccc4C(F)(F)F)nc4ccccc34)c2c1 [II-71, (5,7-Difluoro-1H-indazol-3-yl)-[2-(2-trifluoromethyl-phenyl)-quinazolin-4-yl]-amine]	< 0.1
FC(F)(F)c1ccccc1-c1nc(Nc2n[nH]c3cccc(-n4cccc4)c23)c2ccccc2n1 [II-72, (4-Pyrrol-1-yl-1H-indazol-3-yl)-[2-(2-trifluoromethyl-phenyl)-quinazolin-4-yl]-amine]	1 to 20
Fc1cccc2c(Nc3nc(-c4ccccc4Cl)nc4ccccc34)n[nH]c12 [II-74, [2-(2-Chloro-phenyl)-quinazolin-4-yl]-(7-fluoro-1H-indazol-3-yl)-amine]	< 0.1
Fc1c(C(F)(F)F)ccc2c(Nc3nc(-c4ccccc4C(F)(F)F)nc4ccccc34)n[nH]c12 [II-81, (7-Fluoro-6-trifluoromethyl-1H-indazol-3-yl)-[2-(2-trifluoromethyl-phenyl)-quinazolin-4-yl]-amine]	< 0.1
Fc1cc(F)c2[nH]nc(Nc3nc(-c4ccc(C(F)(F)F)cc4C(F)(F)F)nc4ccccc34)c2c1 [II-83, [2-(2,4-Bis-trifluoromethyl-phenyl)-quinazolin-4-yl]-(5,7-difluoro-1H-indazol-3-yl)-amine]	< 0.1
Fc1ccc(-c2nc(Nc3n[nH]c4c(F)cc(F)cc34)c3ccccc3n2)c(C(F)(F)F)c1 [II-84, (5,7-Difluoro-1H-indazol-3-yl)-[2-(4-fluoro-2-trifluoromethyl-phenyl)-quinazolin-4-yl]-amine]	< 0.1
Fc1cc(F)c2[nH]nc(Nc3nc(-c4ccccc4Br)nc4ccccc34)c2c1 [II-85, [2-(2-Bromo-phenyl)-quinazolin-4-yl]-(5,7-difluoro-1H-indazol-3-yl)-amine]	< 0.1
Fc1cc(F)c2[nH]nc(Nc3nc(-c4ccc(Cl)cc4Cl)nc4ccccc34)c2c1 [II-87, [2-(2,4-Dichloro-phenyl)-quinazolin-4-yl]-(5,7-Difluoro-1H-indazol-3-yl)-amine]	< 0.1
Fc1cc(F)c2[nH]nc(Nc3nc(-c4cc(C(F)(F)F)ccc4Cl)nc4ccccc34)c2c1 [II-88, [2-(2-Chloro-5-trifluoromethyl-phenyl)-quinazolin-4-yl]-(5,7-Difluoro-1H-indazol-3-yl)-amine]	< 0.1
Fc1cccc2[nH]nc(Nc3nc(-c4ccccc4C(F)(F)F)nc4ccccc34)c12 [II-89, (4-Fluoro-1H-indazol-3-yl)-[2-(2-trifluoromethyl-phenyl)-quinazolin-4-yl]-amine]	1 to 20

Compound	Ki [µM]
COc1cccc2c(Nc3n[nH]c4c(F)cccc34)nc(-c3ccccc3C(F)(F)F)nc12 [II-92, (7-Fluoro-1H-indazol-3-yl)-[8-methoxy-2-(2-trifluoromethyl-phenyl)-quinazolin-4-yl]-amine]	< 0.1
O=[N+]([O-])c1ccc(-c2nc(Nc3n[nH]c4c(F)cc(F)cc34)c3ccccc3n2)c(Cl)c1 [II-95, [2-(2-Chloro-4-nitro-phenyl)-quinazolin-4-yl]-(5,7-difluoro-1H-indazol-3-yl)-amine]	< 0.1
FC(F)(F)c1ccccc1-c1nc(Nc2n[nH]c3c2CCCC3)c2ccccc2n1 [II-97, (4,5,6,7-Tetrahydro-1H-indazol-3-yl)-[2-(2-trifluoromethyl-phenyl)-quinazolin-4-yl]-amine]	0.1 to 1
FC(F)(F)c1ccccc1-c1nc(Nc2n[nH]c3cccnc23)c2ccccc2n1 [II-98, (1H-Pyrazolo[4,3-b]pyridin-3-yl)-[2-(2-trifluoromethyl-phenyl)-quinazolin-4-yl]-amine]	1 to 20
Cc1cc(C)c2c(Nc3nc(-c4ccccc4C(F)(F)F)nc4ccccc34)n[nH]c2n1 [II-100]	1 to 20
O=c1cc2[nH]nc(Nc3nc(-c4ccccc4C(F)(F)F)nc4ccccc34)c2nn1-c1ccccc1 [II-101, (6-Oxo-5-phenyl-5,6-dihydro-1H-pyrazolo[4,3-c]pyridazin-3-yl)-[2-(2-trifluoromethyl-phenyl)-quinazolin-4-yl]-amine]	0.1 to 1
FC(F)(F)c1ccccc1-c1nc(Nc2n[nH]c3ccccc23)c2cccnc2n1 [II-108, (1H-Indazol-3-yl)-[2-(2-trifluoromethyl-phenyl)-pyrido[2,3-d]pyrimidin-4-yl]-amine]	< 0.1
Fc1cc(F)c2[nH]nc(Nc3nc(-c4ccccc4C(F)(F)F)nc4ncccc34)c2c1 [II-109, (5,7-Difluoro-1H-indazol-3-yl)-[2-(2-trifluoromethyl-phenyl)-pyrido[2,3-d]pyrimidin-4-yl]-amine]	< 0.1
Clc1ccccc1-c1nc(Nc2n[nH]c3ccccc23)c2cccnc2n1 [II-110, [2-(2-Chloro-phenyl)-pyrido[2,3-d]pyrimidin-4-yl]-(1H-indazol-3-yl)-amine]	< 0.1
Fc1ccc2[nH]nc(Nc3nc(-c4ccccc4C(F)(F)F)nc4c3CCCCCC4)c2c1 [II-111, (5-Fluoro-1H-indazol-3-yl)-[2-(2-trifluoromethyl-phenyl)-5,6,7,8,9,10-hexahydro-cyclooctapyrimidin-4-yl]-amine]	< 0.1
Fc1ccc2[nH]nc(Nc3nc(-c4ccccc4Cl)nc4c3CCC4)c2c1 [II-112, [2-(2-Chloro-phenyl)-6,7-dihydro-5H-cyclopentapyrimidin-4-yl]-(5-fluoro-1H-indazol-3-yl)-amine]	< 0.1
FC(F)(F)c1ccccc1-c1nc2c(c(Nc3n[nH]c4ccccc34)n1)CCC2 [II-113, (1H-Indazol-3-yl)-[2-(2-trifluoromethyl-phenyl)-6,7-dihydro-5H-cyclopentapyrimidin-4-yl]-amine]	< 0.1
Fc1cccc2c(Nc3nc(-c4ccccc4C(F)(F)F)nc4c3CCC4)n[nH]c12 [II-114, (7-Fluoro-1H-indazol-3-yl)-[2-(2-trifluoromethyl-phenyl)-6,7-dihydro-5H-cyclopentapyrimidin-4-yl]-amine]	< 0.1
Fc1cc(F)c2[nH]nc(Nc3nc(-c4ccccc4C(F)(F)F)nc4c3CCC4)c2c1 [II-115, (5,7-Difluoro-1H-indazol-3-yl)-[2-(2-trifluoromethyl-phenyl)-6,7-dihydro-5H-cyclopentapyrimidin-4-yl]-amine]	< 0.1
Clc1ccccc1-c1nc2c(c(Nc3n[nH]c4ccccc34)n1)CCC2 [II-116, [2-(2-Chloro-phenyl)-6,7-dihydro-5H-cyclopentapyrimidin-4-yl]-(1H-indazol-3-yl)-amine]	< 0.1
Fc1cccc2c(Nc3nc(-c4ccccc4Cl)nc4c3CCC4)n[nH]c12 [II-117, [2-(2-Chloro-phenyl)-6,7-dihydro-5H-cyclopentapyrimidin-4-yl]-(7-fluoro-1H-indazol-3-yl)-amine]	< 0.1
Fc1cc(F)c2[nH]nc(Nc3nc(-c4ccccc4Cl)nc4c3CCC4)c2c1 [II-118, [2-(2-Chloro-phenyl)-6,7-dihydro-5H-cyclopentapyrimidin-4-yl]-(5,7-difluoro-1R-indazol-3-yl)-amine]	< 0.1
FC(F)(F)c1ccccc1-c1nc2c(c(Nc3n[nH]c4ccccc34)n1)CCCCCC2 [II-119, (1H-Indazol-3-yl)-[2-(2-trifluoromethyl-phenyl)-5,6,7,8,9,10-hexahydro-cyclooctapyrimidin-4-yl]-amine]	< 0.1
